Molecular target: PDE1A (Homo sapiens, UniProt P54750)
Assay: PDE1A dose response, Cyclic Nucleotide Phosphodiesterase Assay Kit from Biomol (colorimetric)
Type: biochemical
Details: purified PDE1A enzyme, 100 μM cAMP
From the text: For the dose response and further screening, we used the Cyclic Nucleotide
Phosphodiesterase Assay Kit from Biomol, a colorimetric, non-radioactive assay. The basis for the assay is the cleavage of cAMP by PDE1A. The 5′AMP is further cleaved into the nucleoside and phosphate by the enzyme 5′-nucleotidase (catnr KI-307). The phosphate released due to enzymatic cleavage is quantified using BIOMOL GREEN™ reagent (catnr AK-111) in a modified Malachite Green assay^1,2. A PDE1A inhibitor will result in a decrease of the signal.
For the enzymatic reaction a mix of 25 μL with purified PDE1A enzyme, 100 μM cAMP, 5′Nucleotidase and the compound is made in a clear 384-plate. The reaction buffer is Tris 20 mM pH 7.4, 4 μg/mL calmodulin, 3 mM MgCl2, 1.5 mM CaCl2, 0.2 mg/mL BSA and 0.001% Brij-35. After an incubation of 45 minutes at 37° C., the reaction is stopped by the addition of 50 μL BIOMOL GREEN™ reagent. After 30 minutes incubation at room temperature, the readout is performed on the Envision (absorption at 615 nm).
All compounds are tested in duplicate starting from […] followed by a 1/3 serial dilution, 8 points (20 μM-6.67 μM-2.22 μM-740 nM-247 nM-82 nM-27 nM-9 nM) in a final concentration of 1% DMSO. As the positive dose response control compound Vardenafil is used. For the calculation of z′ and PIN values 10 μM Vardenafil is used as positive control (100% inhibition) and 1% DMSO as negative control (0% inhibition).
The following compounds have been or can be prepared according to the synthetic methods described above. For the purpose of Table 7 below, PDE1A activity of each compound, which can be determined using the assay methods described herein, is expressed as follows: […]

| IC50 | Compound |
| --- | --- |
| 1 to 100 nM | O=C(Nc1ccc(OC(F)(F)F)cc1)N1CC(c2nc3c(cnn3C3CCCCC3)c(=O)[nH]2)C1 [Example 25, 3-(1-cyclohexyl-4-oxo-4,5-dihydro-1H-pyrazolo[3,4-d]pyrimidin-6-yl)-N-(4-(trifluoromethoxy)phenyl)azetidine-1-carboxamide] |
| 1 to 100 nM | CC(C)(C)OC(=O)N1CCCC(NC(=O)N2CC(c3nc4c(cnn4C4CCCCC4)c(=O)[nH]3)C2)C1 (centres unmarked) [Example 26, tert-butyl 3-(3-(1-cyclohexyl-4-oxo-4,5-dihydro-1H-pyrazolo[3,4-d]pyrimidin-6-yl)azetidine-1-carboxamido)piperidine-1-carboxylate] |
| 1 to 100 nM | Cc1nn(C2CCCCC2)c2nc(C3CN(C(=O)NCc4ccc(F)cc4)C3)[nH]c(=O)c12 [Example 27, 3-(1-cyclohexyl-3-methyl-4-oxo-4,5-dihydro-1H-pyrazolo[3,4-d]pyrimidin-6-yl)-N-(4-fluorobenzyl)azetidine-1-carboxamide] |
| 1 to 100 nM | COc1ccc(CNC(=O)N2CC(c3nc4c(c(C)nn4C4CCCCC4)c(=O)[nH]3)C2)cc1 [Example 28, 3-(1-cyclohexyl-3-methyl-4-oxo-4,5-dihydro-1H-pyrazolo[3,4-d]pyrimidin-6-yl)-N-(4-methoxybenzyl)azetidine-1-carboxamide] |
| 1 to 100 nM | Cc1nn(-c2ccc(F)cc2)c2nc(C3CN(C(=O)Nc4ccccc4OC(F)F)C3)[nH]c(=O)c12 [Example 29, N-(2-(difluoromethoxy)phenyl)-3-(1-(4-fluorophenyl)-3-methyl-4-oxo-4,5-dihydro-1H-pyrazolo[3,4-d]pyrimidin-6-yl)azetidine-1-carboxamide] |
| 1 to 100 nM | O=C(NCc1ccc(F)cc1)N1CC(c2nc3c(cnn3C3CCCCC3)c(=O)[nH]2)C1 [Example 30, 3-(1-cyclohexyl-4-oxo-4,5-dihydro-1H-pyrazolo[3,4-d]pyrimidin-6-yl)-N-(4-fluorobenzyl)azetidine-1-carboxamide] |
| 1 to 100 nM | O=C(NCc1ccccc1)N1CC(c2nc3c(cnn3C3CCCCC3)c(=O)[nH]2)C1 [Example 31, N-benzyl-3-(1-cyclohexyl-4-oxo-4,5-dihydro-1H-pyrazolo[3,4-d]pyrimidin-6-yl)azetidine-1-carboxamide] |
| 1 to 100 nM | O=C(NC1CCCC1)N1CC(c2nc3c(cnn3C3CCCCC3)c(=O)[nH]2)C1 [Example 32, 3-(1-cyclohexyl-4-oxo-4,5-dihydro-1H-pyrazolo[3,4-d]pyrimidin-6-yl)-N-cyclopentylazetidine-1-carboxamide] |
| 1 to 100 nM | N#Cc1ccc(NC(=O)N2CC(c3nc4c(cnn4C4CCCCC4)c(=O)[nH]3)C2)cc1 [Example 33, N-(4-cyanophenyl)-3-(1-cyclohexyl-4-oxo-4,5-dihydro-1H-pyrazolo[3,4-d]pyrimidin-6-yl)azetidine-1-carboxamide] |
| 1 to 100 nM | CCCCNC(=O)N1CC(c2nc3c(cnn3C3CCCCC3)c(=O)[nH]2)C1 [Example 34, N-butyl-3-(1-cyclohexyl-4-oxo-4,5-dihydro-1H-pyrazolo[3,4-d]pyrimidin-6-yl)azetidine-1-carboxamide] |
| 1 to 100 nM | O=C(Nc1ccc(C(F)(F)F)cc1)N1CC(c2nc3c(cnn3C3CCCCC3)c(=O)[nH]2)C1 [Example 35, 3-(1-cyclohexyl-4-oxo-4,5-dihydro-1H-pyrazolo[3,4-d]pyrimidin-6-yl)-N-(4-(trifluoromethyl)phenyl)azetidine-1-carboxamide] |
| 1 to 100 nM | O=C(NCc1ccc(Cl)c(Cl)c1)N1CC(c2nc3c(cnn3C3CCCCC3)c(=O)[nH]2)C1 [Example 37, 3-(1-cyclohexyl-4-oxo-4,5-dihydro-1H-pyrazolo[3,4-d]pyrimidin-6-yl)-N-(3,4-dichlorobenzyl)azetidine-1-carboxamide] |
| 1 to 100 nM | CC(C)(C)NC(=O)N1CC(c2nc3c(cnn3C3CCCCC3)c(=O)[nH]2)C1 [Example 38, N-tert-butyl-3-(1-cyclohexyl-4-oxo-4,5-dihydro-1H-pyrazolo[3,4-d]pyrimidin-6-yl)azetidine-1-carboxamide] |
| 1 to 100 nM | Cc1nn(C2CCCCC2)c2nc(C3CN(C(=O)NCc4ccc(Cl)c(Cl)c4)C3)[nH]c(=O)c12 [Example 39, 3-(1-cyclohexyl-3-methyl-4-oxo-4,5-dihydro-1H-pyrazolo[3,4-d]pyrimidin-6-yl)-N-(3,4-dichlorobenzyl)azetidine-1-carboxamide] |
| 1 to 100 nM | CS(=O)(=O)N1CCC(NC(=O)N2CC(c3nc4c(cnn4C4CCCCC4)c(=O)[nH]3)C2)CC1 [Example 40, 3-(1-cyclohexyl-4-oxo-4,5-dihydro-1H-pyrazolo[3,4-d]pyrimidin-6-yl)-N-(1-(methylsulfonyl)piperidin-4-yl)azetidine-1-carboxamide] |
| 1 to 100 nM | CC(C)(C)OC(=O)N1CCC(NC(=O)N2CC(c3nc4c(cnn4C4CCCCC4)c(=O)[nH]3)C2)CC1 [Example 41, tert-butyl 4-(3-(1-cyclohexyl-4-oxo-4,5-dihydro-1H-pyrazolo[3,4-d]pyrimidin-6-yl)azetidine-1-carboxamido)piperidine-1-carboxylate] |
| 1 to 100 nM | Cc1nn(C2CCCCC2)c2nc(C3CN(C(=O)N[C@@H](C)c4ccccc4)C3)[nH]c(=O)c12 [Example 42, (S)-3-(1-cyclohexyl-3-methyl-4-oxo-4,5-dihydro-1H-pyrazolo[3,4-d]pyrimidin-6-yl)-N-(1-phenylethyl)azetidine-1-carboxamide] |
| 1 to 100 nM | O=C(NCCC(F)(F)F)N1CC(c2nc3c(cnn3C3CCCCC3)c(=O)[nH]2)C1 [Example 43, 3-(1-cyclohexyl-4-oxo-4,5-dihydro-1H-pyrazolo[3,4-d]pyrimidin-6-yl)-N-(3,3,3-trifluoropropyl)azetidine-1-carboxamide] |
| 1 to 100 nM | COc1ccc(S(=O)(=O)N2CCCC(c3nc4c(cnn4C4CCCCC4)c(=O)[nH]3)C2)cc1OC (centres unmarked) [Example 44, 1-cyclohexyl-6-(1-(3,4-dimethoxyphenylsulfonyl)piperidin-3-yl)-1H-pyrazolo[3,4-d]pyrimidin-4(5H)-one] |
| 101 to 500 nM | CN(C)c1cccc(C(=O)N2CCCC(c3nc4c(cnn4C4CCCCC4)c(=O)[nH]3)C2)c1 (centres unmarked) [Example 45, 1-cyclohexyl-6-(1-(3-(dimethylamino)benzoyl)piperidin-3-yl)-1H-pyrazolo[3,4-d]pyrimidin-4(5H)-one] |
| 101 to 500 nM | COc1ccc(S(=O)(=O)N2CCCC(c3nc4c(cnn4-c4ccccc4)c(=O)[nH]3)C2)cc1 (centres unmarked) [Example 46, 6-(1-(4-methoxyphenylsulfonyl)piperidin-3-yl)-1-phenyl-1H-pyrazolo[3,4-d]pyrimidin-4(5H)-one] |
| 101 to 500 nM | O=C(NC1CCOCC1)N1CC(c2nc3c(cnn3C3CCCCC3)c(=O)[nH]2)C1 [Example 47, 3-(1-cyclohexyl-4-oxo-4,5-dihydro-1H-pyrazolo[3,4-d]pyrimidin-6-yl)-N-(tetrahydro-2H-pyran-4-yl)azetidine-1-carboxamide] |
| 101 to 500 nM | COc1ccccc1C(=O)N1CCCC(c2nc3c(cnn3C3CCCCC3)c(=O)[nH]2)C1 (centres unmarked) [Example 48, 1-cyclohexyl-6-(1-(2-methoxybenzoyl)piperidin-3-yl)-1H-pyrazolo[3,4-d]pyrimidin-4(5H)-one] |
| 101 to 500 nM | O=C(c1cccc2c1OCO2)N1CCCC(c2nc3c(cnn3C3CCCCC3)c(=O)[nH]2)C1 (centres unmarked) [Example 49, 6-(1-(benzo[d][1,3]dioxole-4-carbonyl)piperidin-3-yl)-1-cyclohexyl-1H-pyrazolo[3,4-d]pyrimidin-4(5H)-one] |
| 101 to 500 nM | Cc1nn(-c2ccc(F)cc2)c2nc(C3CN(C(=O)NC4CCCCC4)C3)[nH]c(=O)c12 [Example 50, N-cyclohexyl-3-(1-(4-fluorophenyl)-3-methyl-4-oxo-4,5-dihydro-1H-pyrazolo[3,4-d]pyrimidin-6-yl)azetidine-1-carboxamide] |
| 101 to 500 nM | COc1ccc(S(=O)(=O)N2CCCC(c3nc4c(cnn4C4CCCCC4)c(=O)[nH]3)C2)cc1 (centres unmarked) [Example 51, 1-cyclohexyl-6-(1-(4-methoxyphenylsulfonyl)piperidin-3-yl)-1H-pyrazolo[3,4-d]pyrimidin-4(5H)-one] |
| 101 to 500 nM | COc1cccc(C(=O)N2CC(c3nc4c(c(C)nn4C4CCCCC4)c(=O)[nH]3)C2)c1 [Example 52, 1-cyclohexyl-6-(1-(3-methoxybenzoyl)azetidin-3-yl)-3-methyl-1H-pyrazolo[3,4-d]pyrimidin-4(5H)-one] |
| 101 to 500 nM | COc1cccc(C(=O)N2CCCC(c3nc4c(cnn4C4CCCCC4)c(=O)[nH]3)C2)c1 (centres unmarked) [Example 53, 1-cyclohexyl-6-(1-(3-methoxybenzoyl)piperidin-3-yl)-1H-pyrazolo[3,4-d]pyrimidin-4(5H)-one] |
| 101 to 500 nM | O=C(c1ccccc1OC(F)(F)F)N1CCCC(c2nc3c(cnn3C3CCCCC3)c(=O)[nH]2)C1 (centres unmarked) [Example 54, 1-cyclohexyl-6-(1-(2-(trifluoromethoxy)benzoyl)piperidin-3-yl)-1H-pyrazolo[3,4-d]pyrimidin-4(5H)-one] |

From patent US20090137549A1, “Novel compounds useful for the treatment of degenerative & inflamatory diseases” (priority 2006, published 2009)
